Experimental data reported in the supplement of paper PMC10307832.

Experiments:
Experiment in all cases: relative viability (nuclei count vs DMSO), 5 days (fraction); higher = more cells survive
[1] = compound: COC1=C(C=C(C=C1)C2=CC3=NC=CN3C(=N2)NC4=C(C=CC=N4)C(=O)N)OC [BAY61-3606] + CC(=O)c1c(C)c2cnc(Nc3ccc(N4CCNCC4)cn3)nc2n(C2CCCC2)c1=O [Palbociclib] (partner 0.5 µM)
Outline: (§1)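 Lung cancer cell lines were seeded in 1536-well plates and dosed by pin tool the next day, with either a single drug or a fixed anchor-drug dose combined with five library-drug doses (not always all listed) spaced in √10 steps. Five days later, one step fixed the cells and stained their nuclei (final 0.05% Triton X-100, 1% formaldehyde, 1 ug/ml Hoechst), and nuclei were counted on 4× images. Relative viability is the nuclei count in treated wells divided by the count in vehicle wells, and each value is the median of duplicate plates.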

[2] = compound: COc1cccc2c1C(=O)c1c(O)c3c(c(O)c1C2=O)C[C@@](O)(C(=O)CO)C[C@@H]3O[C@H]1C[C@H](N)[C@H](O)[C@H](C)O1 [Doxorubicin] + CS(=O)(=O)N1CCN(Cc2cc3nc(-c4cccc5[nH]ncc45)nc(N4CCOCC4)c3s2)CC1 [Pictilisib] (partner 1 µM)
Outline: as §1

[3] = compound: COc1cccc2c1C(=O)c1c(O)c3c(c(O)c1C2=O)C[C@@](O)(C(=O)CO)C[C@@H]3O[C@H]1C[C@H](N)[C@H](O)[C@H](C)O1 [Doxorubicin] + CC1(C)CCC(c2ccc(Cl)cc2)=C(CN2CCN(c3ccc(C(=O)NS(=O)(=O)c4ccc(N[C@H](CCN5CCOCC5)CSc5ccccc5)c(S(=O)(=O)C(F)(F)F)c4)cc3)CC2)C1 [Navitoclax] (partner 0.5 µM)
Outline: as §1

[4] = compound: COc1cccc2c1C(=O)c1c(O)c3c(c(O)c1C2=O)C[C@@](O)(C(=O)CO)C[C@@H]3O[C@H]1C[C@H](N)[C@H](O)[C@H](C)O1 [Doxorubicin] + Cc1nc(Nc2ncc(C(=O)Nc3c(C)cccc3Cl)s2)cc(N2CCN(CCO)CC2)n1 [Dasatinib] (partner 0.075 µM)
Outline: as §1

UMC-11
relative viability ([1]; first compound 0.02 µM): 0.352
relative viability ([1]; first compound 0.06325 µM): 0.319
relative viability ([1]; first compound 0.2 µM): 0.304
relative viability ([1]; first compound 0.6325 µM): 0.361
relative viability ([1]; first compound 2 µM): 0.339
relative viability ([2]; first compound 0.001 µM): 0.849
relative viability ([2]; first compound 0.003162 µM): 0.927
relative viability ([2]; first compound 0.01 µM): 0.769
relative viability ([2]; first compound 0.03162 µM): 0.445
relative viability ([2]; first compound 0.1 µM): 0.369
relative viability ([3]; first compound 0.001 µM): 0.414
relative viability ([3]; first compound 0.003162 µM): 0.306
relative viability ([3]; first compound 0.01 µM): 0.323
relative viability ([3]; first compound 0.03162 µM): 0.229
relative viability ([3]; first compound 0.1 µM): 0.366
relative viability ([4]; first compound 0.001 µM): 0.43
relative viability ([4]; first compound 0.003162 µM): 0.47
relative viability ([4]; first compound 0.01 µM): 0.44
relative viability ([4]; first compound 0.03162 µM): 0.446
relative viability ([4]; first compound 0.1 µM): 0.282
